{"source": "paper PMC5617480", "about": "(Oncotarget, 2017)", "test_system": "TRF1, mutp53, hTERT, TRF2, c-myc, and 53BP1", "experiment": "Western blot in BEL-7404 xenograft models", "assay_type": "in vivo, BALB/c nude mice", "settings": "8 mg/kg and 4 mg/kg", "method": "(E–H) In vivo tumor growth inhibition activity of complex 6 (4.0, 8.0 mg/kg/d) treated of BEL-7402 model with 4.0 and 8.0 mg/kg/d, comparing with cisplatin (2 mg/kg/2 days). (A) and (E). Changes in tumor volume between treatment groups (including complex 6 (4.0, 8.0 mg/kg/d), 5-FU (20 mg/kg/2 days) or cisplatin (2 mg/kg/2 days)) and vehicle (saline) group of BEL-7404 tumor-bearing mice and BEL-7402 tumor-bearing mice. Data of tumor growth were tracked by the mean tumor volume (mm^3) ± SD (n = 6) and calculated as percent TGI (tumor growth inhibition, %) values. (B and F) Relative body weight change by considering the body weight at the start of the treated group as 100%, the percent weight loss or gain was calculated on subsequent days of treatment. (C) and (G) Tumor weight between treatment groups and vehicle (saline) group of BEL-7404 tumor-bearing mice and BEL-7402 tumor-bearing mice. […] (I) The expression protein level of TRF1, mutp53, hTERT, TRF2, c-myc, and 53BP1 were analyzed by western blot in BEL-7404 xenograft models treated with 8 mg/kg and 4 mg/kg complex 6, and 20 mg/kg 5-FU, respectively. (J) The whole-BEL-7404 xenograft model extracts were prepared and analyzed by Western blot analysis using antibodies against TRF1, mutp53, hTERT, TRF2, c-myc, and 53BP1. […] Western blotting bands from three independent measurements were quantified with Image J. in (I). […]", "data": [{"substance": "cis-[PtCl2(S-(–)-FOA)] [complex 6]", "values": [{"measurement": "expression of mutp53, c-myc, and hTERT", "value": "down-regulated"}, {"measurement": "protein expression of TRF1, TRF2, and 53BP1", "value": "significantly up-regulated"}]}]}
